Test [1] concerns the target T1, dog NMUR2 (Canis lupus familiaris, UniProt A0A8I3MN59).
T1 construct: expressed in transfected cells
The experiment in a line: FLIPR calcium mobilization assay, dog NMUR2 cell line. The conditions noted are these: for pEC50: dog NMUR2, FLIPR. Format: cell-based. From the text: (§1) Human, mouse or rat cDNAs encoding NMUR1 or NMUR2 (as described in Howard et al. Nature 406: 70-74 (2000) were subcloned in pcDNA5 (Invitrogen) and transfected into FLP-In CHO cells and HEK-293 FLP-In cells purchased from Invitrogen (Carlsbad, Calif.) using lipofectamine (Invitrogen). The Flp-In system allows integration and expression of a particular gene of interest at a specific genomic location utilizing the Flp recombinase from yeast. The transfected cells were selected by growth in medium containing 200 μg/mL hygromycin (Invitrogen). Populations were frozen at early passage numbers, and these stocks were used for further studies. Stable clones that expressed the mRNAs were identified functionally by FLIPR as well as by RT-PCR. […] Two different rodent NMUR1 cell lines were thus generated: one with the codon as predicted from the genomic databases and another cell line with an engineered methionine (ATG) as the start codon. The dog NMU receptors were also cloned from intestine RNA (NMUR1) and brain (NMUR2) and stable cell lines were generated as used for the human and rodent cell lines. […] To ensure high levels of expression in a heterologous system, a dog NMUR1 cell line was generated that contains an ATG as the start codon. Additionally, stable cell lines expressing the human receptors were generated in HEK-293/aeq 17 cells which stably express the aequorin gene under the CMV promoter. The human NMUR2 cDNA was cloned into pcDNA3.1 and human NMUR1 was subcloned into pIRES-puro (Clontech, Mountain View, Calif.), after transfection cells were selected in media containing G418 and either hygromycin (NMUR2) or puromycin (NMUR1).
(§2) The NMU receptors signal primarily through Gαq/11 proteins; therefore calcium mobilization assays can be utilized for functional activity.
(§3) Stable cell lines expressing human and or rodent NMUR1 or human NMUR2 receptors are plated at a density of 12,000 cells per well overnight on poly-lysine coated 384-well black-walled plates. The following day, the media is removed from the plates and the cells were subsequently loaded with Fluo-3 (Molecular Probes), a calcium sensitive dye, diluted in FLIPR buffer (1× Hank's buffered saline containing 20 mM HEPES, 0.1% BSA, 2.5 mM probenecid (Sigma) and 1.6 mM TR40). All reagents are from Invitrogen unless otherwise noted. Peptide stocks are resuspended in DMSO at a stock concentration of 2 mM and diluted in FLIPR buffer on the day of the experiment to a 4 μM working stock solution.
(§4) After a 90 minute incubation at room-temperature, cell plates are loaded onto a FLIPR (Molecular Devices) to monitor cellular fluorescence (excitation=488 nm; emission=540 nm) before and after compound/peptide addition. Eight to twelve point dose responses are tested on NMUR-expressing cell lines using FLIPR with 1 μM peptide as the highest dose. The response after peptide addition is taken as the maximum fluorescence units minus the fluorescence immediately prior to stimulation for each well. EC50 values are calculated using GraphPad Prism (San Diego, Calif.) software.
(§5) Percent activity refers to the maximum response at 1 μM compared to the human NMU-25 response at the same concentration.

Test [2] concerns the target T2, mouse NMUR2 (Mus musculus, UniProt Q8BZ39).
T2 construct: expressed in transfected cells; host or cells: FLP-In CHO cells and HEK-293 FLP-In cells (pcDNA5)
The experiment in a line: FLIPR calcium mobilization assay, mouse NMUR2 cell line. In kind it is cell-based. The conditions noted are these: for pEC50: mouse NMUR2, FLIPR.
From the text: as §1, §2, §3, §4, §5

The subject of test [3] is dog NMUR1-ATG. In words: FLIPR calcium mobilization assay, dog NMUR1-ATG cell line. In kind it is cell-based. Particulars: for pEC50: FLIPR.
From the text: as §1, §2, §3, §4, §5
A general note: A change in cytosolic calcium serves as a functional read-out for many receptors and channels.

Test [4] concerns the target T3, mouse NMUR1-ATG (Mus musculus, UniProt O55040).
T3 construct: expressed in transfected cells; host or cells: FLP-In CHO cells and HEK-293 FLP-In cells (pcDNA5)
T3 sequence (O55040 1-428): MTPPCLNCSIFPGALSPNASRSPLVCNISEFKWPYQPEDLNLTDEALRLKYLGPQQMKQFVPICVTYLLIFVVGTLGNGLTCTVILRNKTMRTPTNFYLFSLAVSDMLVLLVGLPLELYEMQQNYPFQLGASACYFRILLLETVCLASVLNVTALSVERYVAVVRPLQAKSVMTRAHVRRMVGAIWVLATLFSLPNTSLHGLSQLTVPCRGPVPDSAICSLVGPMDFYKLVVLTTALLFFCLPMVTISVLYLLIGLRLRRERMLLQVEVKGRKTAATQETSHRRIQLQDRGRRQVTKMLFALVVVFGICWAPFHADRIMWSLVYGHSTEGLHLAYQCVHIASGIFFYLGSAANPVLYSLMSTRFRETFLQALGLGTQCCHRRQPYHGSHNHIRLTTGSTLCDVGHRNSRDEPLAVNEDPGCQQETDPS
In words: FLIPR calcium mobilization assay, mouse NMUR1-ATG cell line. Format: cell-based. The conditions noted are these: for pEC50: FLIPR.
From the text: as §1, §2, §3, §4, §5

The target in test [5] is T4, human NMUR2 (Homo sapiens, UniProt Q9GZQ4).
T4 construct: expressed in transfected cells; host or cells: FLP-In CHO cells and HEK-293 FLP-In cells (pcDNA5)
T4 sequence (Q9GZQ4 whole entry): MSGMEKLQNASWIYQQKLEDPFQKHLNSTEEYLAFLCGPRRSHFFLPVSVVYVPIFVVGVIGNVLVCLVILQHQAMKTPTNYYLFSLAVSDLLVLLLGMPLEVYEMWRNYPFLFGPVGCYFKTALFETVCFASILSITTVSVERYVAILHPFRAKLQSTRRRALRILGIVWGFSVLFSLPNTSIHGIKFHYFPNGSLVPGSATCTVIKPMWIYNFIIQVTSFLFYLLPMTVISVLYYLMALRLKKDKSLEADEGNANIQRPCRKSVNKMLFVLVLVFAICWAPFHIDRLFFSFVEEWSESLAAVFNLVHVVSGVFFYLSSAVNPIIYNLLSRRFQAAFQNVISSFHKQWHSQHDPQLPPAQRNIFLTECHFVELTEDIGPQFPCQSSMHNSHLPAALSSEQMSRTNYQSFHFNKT
The experiment in a line: FLIPR calcium mobilization assay, human NMUR2-expressing cell line. Format: cell-based. Particulars: for pEC50: human NMUR2, FLIPR.
From the text: as §1, §2, §3, §4, §5

Test [6] deals with T5, human NMUR1 (Homo sapiens, UniProt Q9HB89).
T5 construct: expressed in transfected cells; host or cells: FLP-In CHO cells and HEK-293 FLP-In cells (pcDNA5)
T5 sequence (Q9HB89 1-426): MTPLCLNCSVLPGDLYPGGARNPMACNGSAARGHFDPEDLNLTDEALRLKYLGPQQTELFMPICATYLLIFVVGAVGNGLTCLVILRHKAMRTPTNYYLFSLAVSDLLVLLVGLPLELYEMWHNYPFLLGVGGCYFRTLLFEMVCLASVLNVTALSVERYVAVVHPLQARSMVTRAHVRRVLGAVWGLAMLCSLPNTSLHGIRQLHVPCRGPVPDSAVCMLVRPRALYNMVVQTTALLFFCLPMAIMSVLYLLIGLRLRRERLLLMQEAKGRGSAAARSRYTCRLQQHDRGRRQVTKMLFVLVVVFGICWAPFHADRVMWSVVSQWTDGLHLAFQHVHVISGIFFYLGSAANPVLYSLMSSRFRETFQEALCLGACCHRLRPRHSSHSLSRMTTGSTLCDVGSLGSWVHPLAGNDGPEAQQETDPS
In words: FLIPR calcium mobilization assay, human NMUR1-expressing cell line. Particulars: for pEC50: human NMUR1, FLIPR. Format: cell-based.
From the text: as §1, §2, §3, §4, §5

The test system of test [7] is mice. The experiment in a line: Acute subcutaneous administration of NMS analogs, daily food intake and body weight. Format: in vivo. Particulars: for overnight food intake: FIG. 6A; for duration of significant reduction of food intake: daily food intake over a four-day period. As for the experimental part: (§6) Ad libitum fed male diet-induced obese mice obtained from Taconic Farms were weighed and dosed either i.p. or s.c. with NMS or NMU at about 30 minutes prior to the onset of the dark phase of the light cycle and provided with a pre-weighed aliquot of high fat diet (D12492: 60% kcal from fat: Research Diets, Inc.), which was then weighed two and 18 hours after the onset of the initial dark phase. Mice were weighed at the 18 hour (overnight) time point.
The efficacy of various PEGylated NMS analogs were evaluated using the aforementioned assays. The PEGylated NMS analogs evaluated were NMS1 and NMS4 (See Table 1).
NMS1, NMS3, and NMS4 were administered subcutaneously and daily food intake was measured over a four-day period.

The test system of test [8] is wild-type, Nmur1 knockout, Nmur2 knockout and Nmur1/Nmur2 double knockout mice. The experiment in a line: Acute feeding study in wild-type and Nmur knockout mice. Format: in vivo. As for the experimental part:
as §6
NMUR1 knockout (Nmur1−/−) mice were generated using standard homologous recombination techniques. Nmur1 mice were subsequently transferred to Taconic Farms where they were either maintained on a 75% C57BL/6×25% 129S6/SvEv mixed genetic background or backcrossed 6 generations to C57BL/6. NMUR2 knockout (Nmur2−/−) mice were licensed from Deltagen Inc., San Mateo, Calif. and subsequently transferred to Taconic Farms were they were either maintained on a 75% C57BL/6×25% 129/OlaHsd mixed genetic background or backcrossed for 7 generations to C57BL/6. NMUR1 and NMUR2 double knockout (Nmur1&2−/−) mice were generated by crossing N6 Nmur1−/− mice to N7 Nmur2−/− mice. Mice were individually housed in Tecniplast cages in a conventional SPF facility. Mice were initially maintained on a regular chow diet and then early in their life were switched to a high fat diet (D12492) with ad libitum access to water in a 12-h light/12-h dark cycle.
The anorectic effects of NMS1 were mediated by both the NMUR1 and NMUR2 receptors. […] Effects on food intake (FIG. 9A) and body weight (FIG. 9B) are shown.

For test [9], the system named is male diet-induced obese mice. In words: Acute feeding study with NMU and NMS. In kind it is in vivo. The conditions noted are these: acute peripheral administration (i.p. or s.c.), FIG. 1A. The protocol:
as §6

The mark [10] stands for this setting: maximum response at 1 μM compared to the human NMU-25 response at the same concentration.
[11] abbreviates: acute subcutaneous administration.
The mark [12] stands for this setting: acute subcutaneous administration, FIG. 6B.

pEC50: −log10 of the molar value. Residues, ends and D or L forms follow the SMILES beside them. Groups on a side chain read outwards from the residue. No end group written: not given here. *: point of attachment. Succinimide(1-Et,3-yl) = CCN1C(=O)CC(*)C1=O

T1 sequence (A0A8I3MN59 1-378): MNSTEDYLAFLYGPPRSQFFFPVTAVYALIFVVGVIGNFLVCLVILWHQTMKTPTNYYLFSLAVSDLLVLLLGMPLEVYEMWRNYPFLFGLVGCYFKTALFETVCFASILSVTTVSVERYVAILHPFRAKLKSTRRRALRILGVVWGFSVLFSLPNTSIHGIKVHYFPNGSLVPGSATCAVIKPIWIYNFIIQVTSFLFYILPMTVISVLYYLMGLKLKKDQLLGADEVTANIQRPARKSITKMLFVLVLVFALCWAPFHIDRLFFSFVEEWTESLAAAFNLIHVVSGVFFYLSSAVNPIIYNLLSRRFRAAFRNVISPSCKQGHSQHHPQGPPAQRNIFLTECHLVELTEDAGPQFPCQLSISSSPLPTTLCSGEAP
T2 sequence (Q8BZ39 whole entry): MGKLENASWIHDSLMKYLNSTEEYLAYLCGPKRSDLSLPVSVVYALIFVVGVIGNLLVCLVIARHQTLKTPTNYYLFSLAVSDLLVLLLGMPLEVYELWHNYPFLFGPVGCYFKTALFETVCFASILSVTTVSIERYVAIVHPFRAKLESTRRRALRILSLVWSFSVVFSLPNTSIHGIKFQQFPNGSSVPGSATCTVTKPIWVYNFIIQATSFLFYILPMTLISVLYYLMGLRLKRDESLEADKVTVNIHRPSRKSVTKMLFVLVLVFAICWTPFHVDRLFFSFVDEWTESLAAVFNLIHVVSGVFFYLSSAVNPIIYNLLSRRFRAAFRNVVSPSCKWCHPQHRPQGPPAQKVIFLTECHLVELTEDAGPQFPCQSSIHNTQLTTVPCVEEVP

What is called pEC50 is −log10 of the EC50, conventionally taken in molar units. Regarding `CC[C@H](C)[C@H](NC(=O)[C@H](CSC1CC(=O)N(CC)C1=O)NC(C)=O)C(=O)N[C@@H](CC(C)C)C(=O)N[C@@H](CCC(N)=O)C(=O)N[C@@H](CCCNC(=N)N)C(=O)NCC(=O)N[C@@H](CO)C(=O)NCC(=O)N[C@H](C(=O)N[C@@H](C)C(=O)N[C@@H](C)C(=O)N[C@H](C(=O)N[C@@H](CC(=O)O)C(=O)N[C@@H](Cc1ccccc1)C(=O)N[C@H](C(=O)N[C@@H](CCCCN)C(=O)N[C@@H](CCCCN)C(=O)N[C@@H](CC(=O)O)C(=O)N[C@@H](Cc1c[nH]cn1)C(=O)N[C@H](C(=O)N[C@@H](C)C(=O)N[C@H](C(=O)N[C@@H](Cc1c[nH]c2ccccc12)C(=O)NCC(=O)N[C@@H](CCCNC(=N)N)C(=O)N1CCC[C@H]1C(=O)N[C@@H](Cc1ccccc1)C(=O)N[C@@H](Cc1ccccc1)C(=O)N[C@@H](CC(C)C)C(=O)N[C@@H](Cc1ccccc1)C(=O)N[C@@H](CCCNC(=N)N)C(=O)N1CCC[C@H]1C(=O)N[C@@H](CCCNC(=N)N)C(=O)N[C@@H](CC(N)=O)C(N)=O)[C@@H](C)O)[C@@H](C)O)[C@@H](C)O)C(C)C)[C@@H](C)O` (stereo partly shown) [NMS3] (Ac-C(Succinimide(1-Et,3-yl))ILQRGSGTAAVDFTKKDHTATWGRPFFLFRPRN-NH2), the pEC50 in [1] is 8.66; in test [2], 7.92; in test [3], 7.94; in test [4] it was 8.06; in test [5], 7.74; in test [6], 7.94. Further, the “% Activity” value in [1] (dog NMUR2, maximum response at 1 μM compared to the human NMU-25 response at the same concentration) was 107%; in test [2] (mouse NMUR2, maximum response at 1 μM compared to the human NMU-25 response at the same concentration), 108%; in [3] (setting [10]), 101%; in test [4] (setting [10]) it was 98%; in test [5] (human NMUR2, maximum response at 1 μM compared to the human NMU-25 response at the same concentration), 105%; in test [6] (human NMUR1, maximum response at 1 μM compared to the human NMU-25 response at the same concentration) it was 97%.

For the compound “Ac-C4ILQRGSGTAAVDFTKKDHTATWGRPFFLFRPRN-CONH2 (Ac-C([maleimide-PEG 40 kDa])ILQRGSGTAAVDFTKKDHTATWGRPFFLFRPRN-NH2) [NMS4, C4 = Cys(PEG)40 kDa, cysteine PEGylated via the side-chain thiol with a linear PEG]”, the pEC50 in [1] was 8.51; in test [2], 7.71; in [3] it was 7.88; in test [4] it was 7.18; in [5], 6.99; in test [6] it was 7.13. Moreover, the overnight food intake entry in [7] (setting [11]) is given as “significantly reduced”. The body weight result in test [7] (setting [12]) is “Significant reductions”. For the same compound, in [7] (setting [11]), the “duration of significant reduction of food intake” value is listed as “two days post-dose”.

As to “Ac-C2ILQRGSGTAAVDFTKKDHTATWGRPFFLFRPRN-CONH2 (Ac-C([maleimide-(PEG)2 40 kDa])ILQRGSGTAAVDFTKKDHTATWGRPFFLFRPRN-NH2) [NMS1, C2 = Cys(PEG)240 kDa, cysteine PEGylated via the side-chain thiol with a branched PEG]”, the pEC50 was 7.65 in [1]; 7.54 in [2]; 7.73 in test [3]; 6.23 in test [4]; 6.40 in test [5]; 6.85 in test [6]. In addition, the body weight entry is “Significant reductions” in [7] (NMS1 compared to NMU9, FIG. 7B); “Significant reductions” in [7] (setting [12]); “no effect” in [8] (acute administration, Nmur1/Nmur2 double knockout animals, FIG. 8B). Also, in test [7] (setting [11]), the overnight food intake result is recorded as “significantly reduced”. Also, in [7] (setting [11]), the “duration of significant reduction of food intake” value is given as “three days post-dose”. Moreover, the food intake result in test [7] (dose response, NMS1 versus NMU9, FIG. 7A) is “reduced food intake for at least three days post-dose in a dose-dependent manner”; in test [8] (acute administration, Nmur1/Nmur2 double knockout animals, FIG. 8A) it was “no effect”. For the same compound, the “effects on food intake and body weight” value in test [8] (Nmur2 knockout animals, FIGS. 9A and 9B) is given as “only overnight effects”. The anorectic efficacy result in test [8] (acute administration, wild-type animals) is recorded as “highly efficacious”.

Take “NMU: Neuromedin U; full length 25-mer (NMU-25) in humans (FRVDEEFQSPFASQSRGYFLFRPRN; ends and bridges not checked; UniProt P48645 142-166, looked up)”: in [9], the food intake result is given as “dose-dependently reduced”.

Source of the values: US20110301079A1, “NEUROMEDIN U RECEPTOR AGONISTS AND USES THEREOF” (Instituto di Ricerche di Biologia Molecolare P. Angeletti …, priority 2007, published 2011).
